Patent EP3046573B1, “AMYLIN ANALOGUES” (Zealand Pharma A/S, priority 2013, dated 2015)
Numbered stars: 1 amine (or outer) side, 2 acyl side, 3 side chain; on linkers, the order of the positions; unused ones are H or OH. Bridge positions count the residues as written; N and C are the ends. Square brackets hold non-standard residues; d marks the D form. Peptide text beside a SMILES is read from it. * marks the point of attachment. C20 diacid = O=C(O)CCCCCCCCCCCCCCCCCCC(=O)*; γGlu = O=C(O)[C@H](CCC(=O)[*:2])N[*:1]; NMeI = CC[C@H](C)[C@H](NC)C(=O)O; Sar = CNCC(=O)O

Assays:
[1] = target: T1, human amylin receptor 3 (hAMYR3) consisting of hCTR2 co-expressed with human Receptor Activity Modifying Protein 3 (hRAMP3) (Homo sapiens, UniProt O60896+P30988); assay: hAMYR3 assay: induction of cAMP (AlphaScreen cAMP Assay kit) in COS7 cells expressing hAMYR3; format: cell-based
T1 construct: expressed in transfected cells
T1 sequence (P30988 25-474): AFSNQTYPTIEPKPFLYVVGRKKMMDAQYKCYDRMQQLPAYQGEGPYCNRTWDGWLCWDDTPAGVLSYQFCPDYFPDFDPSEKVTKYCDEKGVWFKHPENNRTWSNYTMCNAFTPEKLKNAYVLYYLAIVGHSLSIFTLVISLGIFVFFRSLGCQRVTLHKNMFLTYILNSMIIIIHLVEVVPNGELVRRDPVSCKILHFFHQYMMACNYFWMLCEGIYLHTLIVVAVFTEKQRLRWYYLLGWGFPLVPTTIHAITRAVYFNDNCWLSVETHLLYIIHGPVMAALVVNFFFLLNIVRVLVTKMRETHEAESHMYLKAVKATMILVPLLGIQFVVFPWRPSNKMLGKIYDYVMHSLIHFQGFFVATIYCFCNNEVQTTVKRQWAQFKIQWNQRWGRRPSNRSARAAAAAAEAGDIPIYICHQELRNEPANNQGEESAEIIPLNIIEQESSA
T1 sequence (O60896 24-148 partner): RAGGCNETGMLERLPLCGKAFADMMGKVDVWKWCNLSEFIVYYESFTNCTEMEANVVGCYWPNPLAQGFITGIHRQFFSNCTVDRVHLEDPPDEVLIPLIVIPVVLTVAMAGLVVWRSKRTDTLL
In short: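 Stable COS7 clone co-expressing hCTR2 and hRAMP3, stimulated 15 min at 37° C with increasing peptide in Tyrode buffer pH 7.4 with 100 µM IBMX and 0.1% casein. cAMP measured by AlphaScreen after lysis; EC50 and % efficacy versus pramlintide from 4PL fit.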

[2] = Solubility assessment (turbidity absorbance at 325 nm); format: physicochemical; settings: stock 2 mg/ml diluted 1:1, ambient temperature (typically 25°C), n=1; for Solubility, Acetate buffer pH 4: 100 mM acetate buffer pH 4.0; for Solubility, Acetate buffer pH 5: 100 mM acetate buffer pH 5.0; for Solubility, Histidine buffer pH 6: 100 mM histidine buffer pH 6.0; for Solubility, Histidine buffer pH 7: 100 mM histidine buffer pH 7.0; for Solubility, Phosphate buffer pH 6: 100 mM phosphate buffer pH 6.0; for Solubility, Phosphate buffer pH 7: 100 mM phosphate buffer pH 7.0; for Solubility, Phosphate buffer pH 7.5: 100 mM phosphate buffer pH7.5
In short: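 Peptide stock (2 mg/ml, water pH 2.5) diluted 1:1 into 100 mM acetate (pH 4.0, 5.0), histidine (pH 6.0, 7.0) or phosphate (pH 6.0–7.5) buffer; absorbance at 325 nm read at about 25°C, n=1. A325 ≤ 0.02 taken as solubility ≥ 1 mg/ml.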

[3] = target: T2, human calcitonin receptor (hCTR2) (Homo sapiens, UniProt P30988); assay: hCTR2 assay: induction of cAMP (AlphaScreen cAMP Assay kit) in COS7 cells expressing hCTR2; format: cell-based
T2 construct: expressed in transfected cells
T2 sequence (P30988 25-474): T1 sequence (P30988 25-474)
In short: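 Functional agonism is measured as cAMP accumulation in a COS7 line stably transfected with hCTR2, lacking endogenous RAMPs. Peptides act for 15 min at 37° C with IBMX present, and curves are fitted with a 4-parameter logistic model.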

Row | Structure (SMILES) | EC50 [1] | Solubility, Acetate buffer pH 4 [2] | Solubility, Acetate buffer pH 5 [2] | Solubility, Histidine buffer pH 6 [2] | Solubility, Histidine buffer pH 7 [2] | Solubility, Phosphate buffer pH 6 [2] | Solubility, Phosphate buffer pH 7 [2] | Solubility, Phosphate buffer pH 7.5 [2] | EC50 [3]
1 | CC[C@H](C)[C@H](NC(=O)[C@@H](NC(=O)[C@H](CC(N)=O)NC(=O)[C@H](CO)NC(=O)CNC(=O)[C@@H](NC(=O)[C@H](CC(N)=O)NC(=O)[C@@H](NC(=O)[C@H](CO)NC(=O)[C@H](CO)NC(=O)[C@H](CC(C)C)NC(=O)[C@H]([C@@H](C)CC)N(C)C(=O)[C@H](C)NC(=O)CN(C)C(=O)[C@H](Cc1ccccc1)NC(=O)[C@H](CC(N)=O)NC(=O)[C@H](CC(N)=O)NC(=O)[C@H](CO)NC(=O)[C@H](CO)NC(=O)[C@H](CCCNC(=N)N)NC(=O)[C@H](Cc1c[nH]cn1)NC(=O)[C@H](CC(C)C)NC(=O)[C@H](Cc1ccccc1)NC(=O)[C@H](CCC(=O)O)NC(=O)[C@H](C)NC(=O)[C@H](CC(C)C)NC(=O)[C@H](CCCNC(=N)N)NC(=O)[C@H](CCC(N)=O)NC(=O)[C@@H](NC(=O)[C@H](C)NC(=O)[C@@H]1CSSC[C@H](NC(=O)[C@H](CCCNC(=N)N)NC(=O)CC[C@H](NC(=O)CCCCCCCCCCCCCCCCCCC(=O)O)C(=O)O)C(=O)N[C@@H](CC(N)=O)C(=O)N[C@@H]([C@@H](C)O)C(=O)N[C@@H](C)C(=O)N[C@@H]([C@@H](C)O)C(=O)N1)[C@@H](C)O)[C@@H](C)O)C(C)C)[C@@H](C)O)C(N)=O [Compound 99, [19CD]-isoGlu-RC()NTATC()ATQRLAEFLHRSSNNF-Gly(Me)-A-Ile(Me)-LSSTNVGSNTI-NH2] ({C20 diacid-γGlu}-RCNTATCATQRLAEFLHRSSNNF[Sar]A[NMeI]LSSTNVGSNTI-NH2; disulfide 2-7) | 2.2 nM | SS (SS indicates solubility ≥ 1mg/ml) | SS (SS indicates solubility ≥ 1mg/ml) | SS (SS indicates solubility ≥ 1mg/ml) | SS (SS indicates solubility ≥ 1mg/ml) | II (II indicates solubility ≤ 1 mg/ml) | SS (SS indicates solubility ≥ 1mg/ml) | SS (SS indicates solubility ≥ 1mg/ml) | 0.27 nM
2 | CC[C@H](C)[C@@H](C(=O)N[C@@H](CC(C)C)C(=O)N[C@@H](CO)C(=O)N[C@@H](CO)C(=O)N[C@H](C(=O)N[C@@H](CC(N)=O)C(=O)N[C@H](C(=O)NCC(=O)N[C@@H](CO)C(=O)N[C@@H](CC(N)=O)C(=O)N[C@H](C(=O)N[C@@H](CC(C)C)C(N)=O)[C@@H](C)O)C(C)C)[C@@H](C)O)N(C)C(=O)[C@H](C)NC(=O)CN(C)C(=O)[C@H](Cc1ccccc1)NC(=O)[C@H](CC(N)=O)NC(=O)[C@H](CC(N)=O)NC(=O)[C@H](CO)NC(=O)[C@H](CO)NC(=O)[C@H](CCCNC(=N)N)NC(=O)[C@H](Cc1c[nH]cn1)NC(=O)[C@H](CC(C)C)NC(=O)[C@H](Cc1ccccc1)NC(=O)[C@H](CCC(=O)O)NC(=O)[C@H](C)NC(=O)[C@H](CC(C)C)NC(=O)[C@H](CCCNC(=N)N)NC(=O)[C@H](CCC(N)=O)NC(=O)[C@@H](NC(=O)[C@H](C)NC(=O)[C@@H]1CSSC[C@H](NC(=O)[C@H](CCCNC(=N)N)NC(=O)CC[C@H](NC(=O)CCCCCCCCCCCCCCCCCCC(=O)O)C(=O)O)C(=O)N[C@@H](CC(N)=O)C(=O)N[C@@H]([C@@H](C)O)C(=O)N[C@@H](C)C(=O)N[C@@H]([C@@H](C)O)C(=O)N1)[C@@H](C)O [Compound 100, [19CD]-isoGlu-RC()NTATC()ATQRLAEFLHRSSNNF-Gly(Me)-A-Ile(Me)-LSSTNVGSNTL-NH2] ({C20 diacid-γGlu}-RCNTATCATQRLAEFLHRSSNNF[Sar]A[NMeI]LSSTNVGSNTL-NH2; disulfide 2-7) | 6.3 nM | SS (SS indicates solubility ≥ 1mg/ml) | SS (SS indicates solubility ≥ 1mg/ml) | SS (SS indicates solubility ≥ 1mg/ml) | SS (SS indicates solubility ≥ 1mg/ml) | II (II indicates solubility ≤ 1 mg/ml) | SS (SS indicates solubility ≥ 1mg/ml) | SS (SS indicates solubility ≥ 1mg/ml) | 0.37 nM
3 | CC[C@H](C)[C@@H](C(=O)N[C@@H](CC(C)C)C(=O)N[C@@H](CO)C(=O)N[C@@H](CO)C(=O)N[C@H](C(=O)N[C@@H](CC(N)=O)C(=O)N[C@H](C(=O)NCC(=O)N[C@@H](CO)C(=O)N[C@@H](CC(N)=O)C(=O)N[C@H](C(=O)N(C)CC(N)=O)[C@@H](C)O)C(C)C)[C@@H](C)O)N(C)C(=O)[C@H](C)NC(=O)CN(C)C(=O)[C@H](Cc1ccccc1)NC(=O)[C@H](CC(N)=O)NC(=O)[C@H](CC(N)=O)NC(=O)[C@H](CO)NC(=O)[C@H](CO)NC(=O)[C@H](CCCNC(=N)N)NC(=O)[C@H](Cc1c[nH]cn1)NC(=O)[C@H](CC(C)C)NC(=O)[C@H](Cc1ccccc1)NC(=O)[C@H](CCC(=O)O)NC(=O)[C@H](C)NC(=O)[C@H](CC(C)C)NC(=O)[C@H](CCCNC(=N)N)NC(=O)[C@H](CCC(N)=O)NC(=O)[C@@H](NC(=O)[C@H](C)NC(=O)[C@@H]1CSSC[C@H](NC(=O)[C@H](CCCNC(=N)N)NC(=O)CC[C@H](NC(=O)CCCCCCCCCCCCCCCCCCC(=O)O)C(=O)O)C(=O)N[C@@H](CC(N)=O)C(=O)N[C@@H]([C@@H](C)O)C(=O)N[C@@H](C)C(=O)N[C@@H]([C@@H](C)O)C(=O)N1)[C@@H](C)O [Compound 101, [19CD]-isoGlu-RC()NTATC()ATQRLAEFLHRSSNNF-Gly(Me)-A-Ile(Me)-LSSTNVGSNT-Gly(Me)-NH2] ({C20 diacid-γGlu}-RCNTATCATQRLAEFLHRSSNNF[Sar]A[NMeI]LSSTNVGSNT[Sar]-NH2; disulfide 2-7) | 2.7 nM | SS (SS indicates solubility ≥ 1mg/ml) | SS (SS indicates solubility ≥ 1mg/ml) | SS (SS indicates solubility ≥ 1mg/ml) | SS (SS indicates solubility ≥ 1mg/ml) | II (II indicates solubility ≤ 1 mg/ml) | SS (SS indicates solubility ≥ 1mg/ml) | SS (SS indicates solubility ≥ 1mg/ml) | 0.6 nM
